From US20160022625A1, “TASHINONES AND THEIR DERIVATIVES: NOVEL EXCELLENT DRUGS FOR ALZHEIMER DISEASE” (priority 2013, published 2016)
Where two headings read alike, the source gives them in different places.

Tests used:
Aβ1-42 [1] = target: T1, Aβ1-42 (Homo sapiens, UniProt P05067); assay: ThT fluorescence assay of Aβ1-42 amyloid formation (inhibition assay); type: biochemical; conditions: 20 μM Aβ1-42, 37° C.; for final ThT fluorescence intensity reduced by: Aβ:TS=1:2, 24 hour
T1 construct: Aβ1-42 peptide (≧95.5%) was all purchased from American Peptide Inc; purchased American Peptide Inc. (Sunnyvale, Calif.)
Experimental: (§1) To examine the inhibitory effect of TS1 and TS2 on Aβ aggregation, the kinetics and morphological changes of Aβ1-42 amyloid formation in the presence of different molar ratios (Aβ:TS) of two tanshinone compounds were monitored by ThT fluorescence assay and AFM (Atomic force microscopy). 20 μM Aβ1-42 solution (with or without tanshinone) was incubated at 37° C. for 48 h. ThT fluorescence assay has been widely used to detect the formation of amyloid fibrils because the binding of thioflavin dyes to amyloid fibrils enables to reduce self-quenching by restricting the rotation of the benzothiozole and benzaminic rings, leading to a significant increase in fluorescence quantum yield. […] After 24 hour reaction, a strong ThT emission was observed and remained almost unchanged within statistic errors between 24 and 48 hour incubation.
A homogeneous solution of Aβ monomers was required for inhibition tests. The purified Aβ1-42 powder was aliquoted in DMSO for 1 min and sonicated for 30 sec. The initiation of 20 μM Aβ1-42 [containing 1% (v/v) DMSO] aggregation in solution was accomplished by adding an aliquot of the concentrated DMSO-Aβ1-42 solution to 10 mM PBS buffer, followed by immediate vortexing to mix thoroughly. Aβ1-42 solution was then centrifuged with 14,000 rpm for 30 min at 4° C. to remove any existing oligomers, which 75% of the top solution was removed for further incubation or inhibition experiments. The pure Aβ1-42 solution was incubated at 37° C. as control. For Aβ inhibition experiments, 40 mM tanshinone (in DMSO) stock solution was dissolved in freshly prepared Aβ1-42 monomer solution to a final concentration of 20 μM and 40 μM (with Aβ:tanshinone molar ratio of 1:1 and 1:2), respectively. The mixed Aβ-tanshinone samples were incubated at 37° C.
(§2) Aβ1-42 fibrillization and Aβ1-42 fibril disruption in the presence and absence of tanshinones were monitored by ThT fluorescence assay. 2 mM ThT store solution was prepared by adding 0.0328 g ThT powder into 50 mL DI water. 250 μL of the 2 mM ThT solution was further diluted into 50 mL Tris-buffer (pH=7.4) to reach a final concentration of 10 μM. 60 μL of 20 μM Aβ with or without tanshinone was put into 3 mL of 10 μM ThT-Tris solution. Fluorescence spectra were obtained using a LS-55 fluorescence spectrometer (Perkin Elmer Corp., Waltham, Mass.). All measurements were carried out in aqueous solution using a 1 cm×1 cm quartz cuvette. ThT fluorescence emission intensity of each sample was recorded between 460 and 510 nm with an excitation wavelength of 450 nm. Fluorescence intensity from solution without Aβ1-42 was subtracted from solution containing Aβ1-42. Each experiment was repeated in 3 independent samples and each sample was tested quadrupled.

Aβ1-42 [2] = target: T1, Aβ1-42; assay: AFM morphology of Aβ1-42 incubated with tanshinones; conditions: Aβ:TS=1:1, within the first 4 hours
Experimental: as §1
The morphology change of Aβ fibrillization and disruption in the presence and absence of tanshinones was characterized by AFM. A 25 μL sample used in the Aβ1-42 ThT fluorescence assay was taken for AFM measurement at different time points to correlate Aβ morphology change with Aβ grow kinetics. […]

Aβ1-42 fibrils = target: T2, Aβ1-42 fibrils (Homo sapiens, UniProt P05067); assay: Disruption assay of preformed Aβ fibrils (ThT fluorescence); type: biochemical; conditions: 20 μM Aβ fibrils, 37° C.; for decrease in ThT fluorescence of preformed Aβ fibrils vs untreated Aβ control: Aβ:TS=1:1, 48 hour co-incubation; for ThT intensity of preformed Aβ fibrils decreased by: Aβ:TS=1:2, 48 hour co-incubation
T2 construct: Aβ1-42 peptide (≧95.5%) was all purchased from American Peptide Inc; purchased American Peptide Inc. (Sunnyvale, Calif.)
Experimental: The alternative potential therapeutic strategy to treat AD (Alzheimer's Disease) is to reduce the amount of the existing amyloid plaques. A very few molecules have been reported to disaggregate Aβ amyloid. […] To determine the ability of Aβ fibril dissolution by tanshinone in vitro, we set up experiments in which tanshinone was incubated with preformed fibrils. 20 μM Aβ fibrils were first prepared by incubating Aβ monomers in solution for 48 hour, which is sufficient long enough for Aβ to grow into mature fibrils as evidenced through AFM images and ThT fluorescence (FIG. 2). Upon 48 hour incubation, Aβ fibril solution was then co-incubated with TS1 or TS2 with different molar ratios of Aβ:TS (1:1, 1:2, and 1:5) for another 48 hour at 37° C.
Aβ1-42 fibrils were prepared by incubating 20 μM Aβ1-42 monomers for 48 h, which is sufficient long enough to enable Aβ peptides to grow into mature fibrils at a saturate state. The fibril solution was then divided into aliquots for the disruption tests. […] All the disruption samples were incubated at 37° C.
as §2

SH-SY5Y cells [3] = assay: Live/dead cell toxicity assay, tanshinone alone; type: cell-based
From the text: (§3) In order to determine whether tanshinone compounds are able to protect neuronal cells from toxic Aβ species, we conducted cell viability experiments to compare the toxic effects of Aβ, TS1, TS2, Aβ-TS1, and Aβ-TS2 on the SH-SY5Y cells using the SH-SY5Y live/dead assay, which is widely used in studies of Aβ toxicity. Opti-MEM reduced serum medium was used to minimize the noise of fluorescence. We then set the cell death data obtained from Aβ-cell control experiment as a basis of 100% to normalize other data for comparison. […] When treated the cells with 8 μM TS1 or TS2 alone (Aβ:TS=1:0.4), cell death was 25.3% and 20.5% (FIG. 5), respectively. Considering the physiological concentration of Aβ is as low as 10^-9 M, 8 μM tanshinone may exceed a lethal dose to induce cell death. We thus reduced the concentation of TS1 or TS2 to a clinical trial level of 4 μM for cell viability tests. […] We then performed Aβ-tanshione cell toxicity experiments using a 1:0.2 mixture of tanshinones (4 μM) and Aβ (20 μM). […] TS1 appears to be less toxic than TS2 by 13.8%.
(§4) All chemicals for cell culture were purchased from Life Technologies unless otherwise stated. Human neuroblastoma SH-SY5Y cell (ATCC, Manassas, Va., USA) was used as model neuron and cultured in 75 cm^2 T-flasks (Corning) in sterile-filtered Eagles Minimum Essential Medium and Ham's F-12 medium mixed at a 1:1 ratio containing 10% fetal bovine serum (EMEM, ATCC, Manassas, Va., USA), and 1% penicillin/streptomycin in 37° C., humidified air with 5% CO2. Cells were cultured to confluence, and harvested using 0.25 mg/ml Trypsin/EDTA solution (Lonza). Before adding Aβ and tanshinone, cells were re-suspended in Opti-MEM reduced serum medium and counted using a hemacytometer. Cells were then plated in a 24-well tissue culture plate with approximately 150,000 cells per well in 500 μl of Opti-MEM reduced serum medium, and allowed to attach for 24 hours inside the incubator.
(§5) Aβ oligomers were prepared by incubating a 1 mM Aβ-PBS solution at 37° C. for 24 h. Aβ oligomers with a molar ratio of Aβ:tanshinone of 1:0.2 were added to each well to reach a final concentration of 20 μM. The cells were then left for 24 hours before cell toxicity tests. A live/dead cytotoxicity assay, which determines live and dead cells with two probes by measuring intracellular esterase activity and plasma membrane integrity, was used to obtain cell viability/toxicity data. Cells were stained by adding 2 μM of Calcein AM (Life Technologies) to distinguish the presence of live cells with a fluorescence excitation/emission of 494/517 nm, while by adding 5 μM of Ethidium homodimer-1 (Life Technologies) to distinguish the presence of dead cells with a fluorescence excitation/emission of 528/617 nm. The cells were incubated for 15 minutes with the live/dead assay contents to activate the fluorescent dyes. A Zeiss Axiovert 40 CFL inverted microscope fitted with filters at 510 nm and 600 nm was used to obtain fluorescence images of the live and dead cells. Fluorescence readings at 494/517 nm and 528/617 nm were detected using a Synergry H1 microplate reader (BioTek, Winooski, Vt.). Cell death in each incubation condition was normalized using the equation of ΔF=(Fi/FAβ)*100%, where ΔF is the percentage of cell death in different incubation conditions compared with the death of cells co-incubate with Aβ. Fi corresponds to the dead/live fluorescence signal of cells (blank control), cells co-incubate with TS1, cells co-incubate with TS2, cells co-incubate with Aβ and TS1, cells co-incubate with Aβ and TS2, and cells co-incubate with Aβ, respectively. FAβ represents the dead/live fluorescence signal of cells co-incubate with Aβ. The fluorescence signals of blank dyes were calibrated first and then subtracted from the fluorescence signals of medium solution.

SH-SY5Y cells [4] = assay: Live/dead cell assay, protection from Aβ-induced toxicity; type: cell-based, Human; conditions: for protect cultured-cells from Aβ-induced toxicity by: co-incubation of Aβ with a very small amount of TSs; for percentage of dead cells (normalized to Aβ alone = 100%): tanshinone 4 μM + Aβ 20 μM (1:0.2), 24 hour, SH-SY5Y
From the text: as §3, §4
as §5, with “The cells were incubated for 15 minutes with the live/dead assay contents to activate the fluorescent dyes.” left out, “Cell death in each incubation condition was normalized using the equation of ΔF=(Fi/FAβ)*100%, where ΔF is the percentage of cell death in different incubation conditions compared with the death of cells co-incubate with Aβ.” left out

T2 sequence (P05067 672-713 limits assumed): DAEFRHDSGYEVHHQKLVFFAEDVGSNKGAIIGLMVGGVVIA
T1 sequence (P05067 672-713 limits assumed): as above

SMILES | ThT intensity relative to Aβ samples without inhibitors decreased by (Aβ1-42 [1]; Aβ:TS=1:1, 24 hour) [%] | ThT intensity relative to Aβ samples without inhibitors decreased by (Aβ1-42 [1]; Aβ:TS=1:1, 48 hour) [%] | final ThT fluorescence intensity reduced by (Aβ1-42 [1]) [%] | small spherical particles in AFM images (Aβ1-42 [2]) | decrease in ThT fluorescence of preformed Aβ fibrils vs untreated Aβ control (Aβ1-42 fibrils) [%] | ThT intensity of preformed Aβ fibrils decreased by (Aβ1-42 fibrils) [%] | cell death (normalized to Aβ-treated cells = 100%) (SH-SY5Y cells [3]; 4 μM TS alone, 24 hour, SH-SY5Y) [%] | cell death (normalized to Aβ-treated cells = 100%) (SH-SY5Y cells [3]; 8 μM TS alone, 24 hour, SH-SY5Y) [%] | signs of cell death by fluorescence microscopy (SH-SY5Y cells [3]; pure TS, 4 μM level, SH-SY5Y) | protect cultured-cells from Aβ-induced toxicity by (SH-SY5Y cells [4]) [%] | less toxic than TS2 by (difference in dead cells) (SH-SY5Y cells [4]; tanshinone 4 μM + Aβ 20 μM) [%] | percentage of dead cells (normalized to Aβ alone = 100%) (SH-SY5Y cells [4]) [%] | signs of cell death by fluorescence microscopy (SH-SY5Y cells [3]) | cell death (normalized to Aβ-treated cells = 100%) (SH-SY5Y cells [3]; human, 24 h, 4 μM) [%] | cell death (normalized to Aβ-treated cells = 100%) (SH-SY5Y cells [3]; human, 24 h, 8 μM) [%]
Cc1coc2c1C(=O)C(=O)c1c-2ccc2c(C)cccc12 [TS1, tanshinone I] | 78.2 | 65.8 | 88.5 | 1-3 nm | ~0.8 | ~30 | 9.3 | 25.3 | no observable signs of cell death | ~57.5 | 13.8 | ~57.5 |  |  | 
Cc1coc2c1C(=O)C(=O)c1c-2ccc2c1CCCC2(C)C [TS2, tanshinone IIA] | 44.8 | 34.6 | 83.4 | 1-6 nm | ~0.8 | ~30 |  |  |  | ~71.3 |  | ~71.3 | no observable signs of cell death | 5.8 | 20.5
